Experimental findings from patent publication US10532066B2, “Surfactant lipids, compositions thereof, and uses thereof” (National Jewish Health, priority 2007, dated 2020) are described below.

What all share (type): cell-based
For assay [1], the system named is RAW264.7 cells. In words: BODIPY-LPS association with RAW264.7 macrophages (FACScan). The following applies: BODIPY-LPS 1 μg/ml, liposomes 200 μg/ml, 4 h. Here is the method:
FIG. 11. Anionic phospholipids block BODIPY-LPS association with RAW264.7 macrophages. Liposomes were prepared by bath-sonication at room temperature for 30 min. RAW264.7 cells (10^6/tube) were incubated either without or with 1 μg/ml BODIPY-LPS in the presence or absence of liposomes (200 μg/ml) at 4° C. for 4 h. Subsequently the cells were washed by centrifugation and the cell associated fluorescence was quantified by FACScan. […] In panel B the mean fluorescence intensity (MFI) ratio of cells plus LPS/cells without LPS is plotted against different phospholipid treatments. Values shown in B are means±SE for three independent experiments with duplicate determinations in each experiment. Significance—* p<0.05, ** p<0.01
RAW264.7 cells (10^6) were incubated with BODIPY-LPS (1 μg/ml) either with or without phospholipid liposomes (200 μg/ml) at 4° C. for 4 h. When liposomes were added, […] preceded the addition of fluorescent LPS. After the cells were washed with PBS by centrifugation, cell adherent fluorescence was determined using FACScan. Macrophages were counted for 20,000 cells and the graph was made by CellQuest software.

The target in assay [2] is T1, TLR6 (Homo sapiens, UniProt Q9Y2C9).
T1 construct: endogenous in cells; host or cells: BEAS2B
T1 sequence (Q9Y2C9 32-796): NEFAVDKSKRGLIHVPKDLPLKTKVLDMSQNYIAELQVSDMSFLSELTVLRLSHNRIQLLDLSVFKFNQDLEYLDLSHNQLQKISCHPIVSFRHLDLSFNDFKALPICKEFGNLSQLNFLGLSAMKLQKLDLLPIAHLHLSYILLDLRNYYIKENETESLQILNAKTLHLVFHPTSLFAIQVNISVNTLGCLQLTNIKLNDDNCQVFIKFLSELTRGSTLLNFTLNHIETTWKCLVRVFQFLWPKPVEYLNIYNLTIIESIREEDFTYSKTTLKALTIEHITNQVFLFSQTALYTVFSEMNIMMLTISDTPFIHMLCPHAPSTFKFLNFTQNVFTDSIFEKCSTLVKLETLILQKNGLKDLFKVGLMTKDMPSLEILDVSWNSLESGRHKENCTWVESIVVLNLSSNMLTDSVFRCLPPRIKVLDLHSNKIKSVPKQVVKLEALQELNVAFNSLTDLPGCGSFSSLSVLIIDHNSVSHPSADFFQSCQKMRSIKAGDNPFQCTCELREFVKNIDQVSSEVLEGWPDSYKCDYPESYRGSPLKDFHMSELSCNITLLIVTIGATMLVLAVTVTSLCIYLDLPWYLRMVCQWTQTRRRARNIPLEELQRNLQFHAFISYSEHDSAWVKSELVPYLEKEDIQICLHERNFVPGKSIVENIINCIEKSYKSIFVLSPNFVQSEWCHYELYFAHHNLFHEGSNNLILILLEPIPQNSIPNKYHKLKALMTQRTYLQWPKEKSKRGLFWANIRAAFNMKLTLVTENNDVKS
The experiment in a line: TLR agonist IL-8 production in BEAS2B epithelial cells, TLR6. The following applies: MALP2, 48 h. The procedure: (§1) In this experiment, multiple TLRs were stimulated with defined TLR agonists for 48 h, and the IL-8 production was measured. In each case, the maximal stimulation by agonist is set at 100% and the antagonism by POPG or PI is expressed as the relative % response. The Controls consist of no treatment, or treatment with POPG, or phosphatidylcholine (POPC), or phosphatidylinositol (PI), in the absence of agonist as indicated. The agonists for the TLRs consist of Pam3Cys for TLR1/2, Mycoplasma pneumoniae membranes as an agonist for TLR2, Mycoplasma fermentans derived MALP2 as an agonist for TLR 2/6, double stranded RNA (poly IC) for TLR3, and bacterial flagellin (Fla) as an agonist for TLR5.
(§2) Monolayers of BEAS2B cells were challenged with the TLR1/2 agonist, Pam3Cys (25 ug/ml); the TLR 2/6 agonist MALP2 (10 ng/ml); the TLR2 agonist mycoplasma membrane (Mem) (1 ug/ml); the TLR3 agonist, poly I:C (0.1 ug/ml); and the TLR5 agonist, flagellin (100 ng/ml). For each agonist parallel incubations were performed containing 200 ug/ml POPG as liposomes, or 200 ug/ml POPG as nanodises as indicated.

For assay [3], the target named is T2, TLR5 (Homo sapiens, UniProt O60602).
T2 construct: endogenous in cells; host or cells: BEAS2B
T2 sequence (O60602 21-858): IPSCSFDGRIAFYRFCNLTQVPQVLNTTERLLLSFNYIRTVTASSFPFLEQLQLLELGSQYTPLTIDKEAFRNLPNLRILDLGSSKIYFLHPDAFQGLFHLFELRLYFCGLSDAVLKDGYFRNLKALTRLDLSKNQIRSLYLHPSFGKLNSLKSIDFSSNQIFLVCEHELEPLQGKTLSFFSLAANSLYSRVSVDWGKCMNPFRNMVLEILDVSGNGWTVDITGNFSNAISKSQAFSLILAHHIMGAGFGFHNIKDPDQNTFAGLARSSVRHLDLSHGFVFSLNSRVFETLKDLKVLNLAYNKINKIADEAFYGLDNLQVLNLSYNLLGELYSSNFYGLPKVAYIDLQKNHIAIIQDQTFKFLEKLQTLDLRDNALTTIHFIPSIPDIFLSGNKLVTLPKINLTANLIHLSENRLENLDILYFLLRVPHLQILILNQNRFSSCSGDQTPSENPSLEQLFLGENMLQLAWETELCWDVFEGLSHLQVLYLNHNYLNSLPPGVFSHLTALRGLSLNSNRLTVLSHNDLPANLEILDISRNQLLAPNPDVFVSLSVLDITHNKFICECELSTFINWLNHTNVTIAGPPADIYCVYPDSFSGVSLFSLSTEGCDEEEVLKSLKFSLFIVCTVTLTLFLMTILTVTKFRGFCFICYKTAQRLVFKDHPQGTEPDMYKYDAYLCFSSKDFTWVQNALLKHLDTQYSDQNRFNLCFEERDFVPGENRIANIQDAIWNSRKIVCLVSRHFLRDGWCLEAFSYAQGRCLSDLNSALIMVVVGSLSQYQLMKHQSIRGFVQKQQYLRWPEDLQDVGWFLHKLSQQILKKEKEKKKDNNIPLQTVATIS
In words: TLR agonist IL-8 production in BEAS2B epithelial cells, TLR5. The following applies: flagellin, 48 h. Here is the method: as §1, §2

Assay [4] addresses T3, TLR1 (Homo sapiens, UniProt Q15399).
T3 sequence (Q15399 25-786): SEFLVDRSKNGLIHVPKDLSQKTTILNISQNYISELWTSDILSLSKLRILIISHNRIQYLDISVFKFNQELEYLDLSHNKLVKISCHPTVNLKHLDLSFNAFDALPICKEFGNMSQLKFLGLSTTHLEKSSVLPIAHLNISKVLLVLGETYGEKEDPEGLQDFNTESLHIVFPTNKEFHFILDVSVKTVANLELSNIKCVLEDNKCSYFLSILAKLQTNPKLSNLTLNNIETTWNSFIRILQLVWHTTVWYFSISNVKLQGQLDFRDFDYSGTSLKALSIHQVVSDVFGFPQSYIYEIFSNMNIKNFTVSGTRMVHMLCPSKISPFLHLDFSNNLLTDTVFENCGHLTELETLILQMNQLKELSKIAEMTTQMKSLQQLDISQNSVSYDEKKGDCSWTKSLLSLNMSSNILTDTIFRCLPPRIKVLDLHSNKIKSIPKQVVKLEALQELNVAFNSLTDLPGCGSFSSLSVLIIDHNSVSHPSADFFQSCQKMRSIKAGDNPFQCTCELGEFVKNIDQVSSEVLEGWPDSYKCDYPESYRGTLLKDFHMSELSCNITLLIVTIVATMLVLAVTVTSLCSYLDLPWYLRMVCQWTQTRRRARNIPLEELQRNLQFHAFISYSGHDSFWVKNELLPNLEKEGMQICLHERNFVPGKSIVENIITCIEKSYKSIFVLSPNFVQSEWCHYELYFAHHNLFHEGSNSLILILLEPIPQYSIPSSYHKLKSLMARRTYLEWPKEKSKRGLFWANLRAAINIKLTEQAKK
The experiment in a line: TLR agonist IL-8 production in BEAS2B epithelial cells, TLR1. More on the design: endogenous in cells; host or cells: BEAS2B. The following applies: Pam3Cys, 48 h. The procedure: as §1, §2

In assay [5] the target is TLR2 (Homo sapiens, UniProt O60603). The experiment in a line: TLR agonist IL-8 production in BEAS2B epithelial cells, TLR2. More on the design: endogenous in cells; host or cells: BEAS2B. The following applies: Mycoplasma pneumoniae membranes, 48 h. Here is the method: as §1, §2
Chain of TLR2 (O60603 21-784): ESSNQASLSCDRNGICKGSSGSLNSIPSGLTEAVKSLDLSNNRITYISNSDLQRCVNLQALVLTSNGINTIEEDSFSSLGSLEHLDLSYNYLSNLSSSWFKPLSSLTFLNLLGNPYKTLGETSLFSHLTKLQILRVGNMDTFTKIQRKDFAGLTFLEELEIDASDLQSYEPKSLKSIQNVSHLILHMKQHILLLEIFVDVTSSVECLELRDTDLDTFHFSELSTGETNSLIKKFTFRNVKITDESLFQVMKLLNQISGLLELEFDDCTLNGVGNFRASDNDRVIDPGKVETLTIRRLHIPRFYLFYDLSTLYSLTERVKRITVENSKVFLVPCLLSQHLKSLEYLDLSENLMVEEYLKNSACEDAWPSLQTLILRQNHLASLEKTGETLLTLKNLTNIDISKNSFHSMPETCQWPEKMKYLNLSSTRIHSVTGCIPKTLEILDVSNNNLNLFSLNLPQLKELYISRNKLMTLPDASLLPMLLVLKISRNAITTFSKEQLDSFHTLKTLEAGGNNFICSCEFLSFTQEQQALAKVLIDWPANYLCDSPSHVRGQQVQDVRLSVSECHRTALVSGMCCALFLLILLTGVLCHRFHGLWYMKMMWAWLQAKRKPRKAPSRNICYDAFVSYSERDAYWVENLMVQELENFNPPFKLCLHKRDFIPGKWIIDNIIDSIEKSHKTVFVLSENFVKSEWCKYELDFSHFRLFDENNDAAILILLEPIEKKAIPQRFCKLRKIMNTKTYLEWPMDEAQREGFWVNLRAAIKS

Consider phosphatidylinositol [PI], for which the “binding of BODIPY-LPS to the surface of macrophages” value in assay [1] is listed as “blocks the binding”. Moreover, the “activity of TLR6 (IL-8 production)” value in assay [2] is given as “inhibit”. In addition, the “activity of TLR5 (IL-8 production)” value in assay [3] is given as “not”. Also, the “activity of TLR1 (IL-8 production)” value in assay [4] is listed as “inhibit”. For the same compound, the “activity of TLR2 (IL-8 production)” value in assay [5] is listed as “inhibit”.

`CCCCCCCC/C=C\CCCCCCCC(=O)O[C@H](COC(=O)CCCCCCCCCCCCCCC)COP(=O)(O)OCC(O)CO` (stereo partly shown) [POPG, palmitoyl-oleoyl-phosphatidylglycerol]: the “binding of BODIPY-LPS to the surface of macrophages” value in assay [1] is on record as “blocks the binding”. Moreover, in assay [2], the “activity of TLR6 (IL-8 production)” value was “inhibit”. In assay [3], the “activity of TLR5 (IL-8 production)” value is “not”. Further, in assay [4], the “activity of TLR1 (IL-8 production)” value is “inhibit”. The “activity of TLR2 (IL-8 production)” value in assay [5] is “inhibit”.
